Assay results from the supplement of paper PMC10307832.

Columns and labels:
Assay in all cases: relative viability (nuclei count vs DMSO), 5 days (fraction); higher = more cells survive
[1] = compound: C1CC1C(=O)NC2=NNC3=C2C=CC(=C3)C4=CC(=CC=C4)C(=O)NC5CC5 [XMD13-2] + CC(=O)Nc1cccc(-n2c(=O)n(C3CC3)c(=O)c3c(Nc4ccc(I)cc4F)n(C)c(=O)c(C)c32)c1 [Trametinib] (partner 0.02 µM)
Procedure, shortened: (§1)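 One day after seeding in 1536-well plates, lung cancer cell lines were dosed by pin tool. Dosing was either single-drug or a fixed anchor-drug dose plus five library-drug doses (not always all listed) in √10 steps. After 5 days, nuclei were stained in one fix-and-stain step and counted on 4× images, and relative viability is the nuclei count of treated wells over that of vehicle wells, given as the median of duplicate plates.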

[2] = compound: Cc1ccc(C(=O)Nc2cccc(C(F)(F)F)c2)cc1Nc1cncc(C(N)=O)c1 [ALW-II-49-7] + CC1(C)CCC(c2ccc(Cl)cc2)=C(CN2CCN(c3ccc(C(=O)NS(=O)(=O)c4ccc(N[C@H](CCN5CCOCC5)CSc5ccccc5)c(S(=O)(=O)C(F)(F)F)c4)cc3)CC2)C1 [Navitoclax] (partner 0.5 µM)
Procedure, shortened: as §1

[3] = compound: Cc1nc(Nc2ncc(C(=O)Nc3c(C)cccc3Cl)s2)cc(N2CCN(CCO)CC2)n1 [Dasatinib] + CS(=O)(=O)N1CCN(Cc2cc3nc(-c4cccc5[nH]ncc45)nc(N4CCOCC4)c3s2)CC1 [Pictilisib] (partner 1 µM)
Procedure, shortened: as §1

[4] = compound: Cc1nc(Nc2ncc(C(=O)Nc3c(C)cccc3Cl)s2)cc(N2CCN(CCO)CC2)n1 [Dasatinib] + C[C@]1(O)C[C@@H](c2nc(-c3ccc4ccc(-c5ccccc5)nc4c3)c3c(N)nccn32)C1 [Linsitinib] (partner 1 µM)
Procedure, shortened: as §1

Row | Cell Line | relative viability ([1]; first compound 0.05 µM) | relative viability ([1]; first compound 0.1581 µM) | relative viability ([1]; first compound 0.5 µM) | relative viability ([1]; first compound 5 µM) | relative viability ([2]; first compound 0.08 µM) | relative viability ([2]; first compound 0.253 µM) | relative viability ([2]; first compound 0.8 µM) | relative viability ([2]; first compound 2.53 µM) | relative viability ([2]; first compound 8 µM) | relative viability ([3]; first compound 0.005 µM) | relative viability ([3]; first compound 0.01581 µM) | relative viability ([3]; first compound 0.05 µM) | relative viability ([3]; first compound 0.1581 µM) | relative viability ([3]; first compound 0.5 µM) | relative viability ([4]; first compound 0.005 µM) | relative viability ([4]; first compound 0.01581 µM) | relative viability ([4]; first compound 0.05 µM) | relative viability ([4]; first compound 0.1581 µM) | relative viability ([4]; first compound 0.5 µM) | relative viability ([1]; first compound 1.581 µM)
1 | EKVX | 0.383 | 0.341 | 0.248 | 0.299 | 0.942 | 0.888 | 0.832 | 0.502 | 1.08 | 0.449 | 0.231 | 0.338 | 0.181 | 0.101 | 0.945 | 0.683 | 0.778 | 0.314 | 0.142 | –
2 | EMC-BAC-2 | 0.986 | 0.893 | 0.824 | 0.805 | 0.972 | 1.19 | 1.18 | 1.01 | 1.07 | 0.455 | 0.344 | 0.327 | 0.243 | 0.185 | 0.685 | 0.482 | 0.525 | 0.26 | 0.201 | –
3 | EPLC-272H | 0.289 | 0.311 | 0.301 | 0.271 | 1.16 | 1.03 | 1.04 | 1.06 | 1.19 | 0.312 | 0.354 | 0.276 | 0.221 | 0.147 | 1.24 | 1.28 | 1.46 | 0.92 | 0.338 | 0.257
4 | H3255 | 0.749 | 0.66 | 0.556 | 0.475 | 0.581 | 0.541 | 0.375 | 0.313 | 0.538 | 0.474 | 0.446 | 0.342 | 0.234 | 0.152 | 0.929 | 0.918 | 0.957 | 0.658 | 0.287 | –
